In the Kinase Knowledgebase extract (Sharma et al. 2016):

target: PIK3CA (human) (UniProt P42336); assay: Assessment of PIK3CA Kinase Activity
Sequence (P42336 whole entry, looked up): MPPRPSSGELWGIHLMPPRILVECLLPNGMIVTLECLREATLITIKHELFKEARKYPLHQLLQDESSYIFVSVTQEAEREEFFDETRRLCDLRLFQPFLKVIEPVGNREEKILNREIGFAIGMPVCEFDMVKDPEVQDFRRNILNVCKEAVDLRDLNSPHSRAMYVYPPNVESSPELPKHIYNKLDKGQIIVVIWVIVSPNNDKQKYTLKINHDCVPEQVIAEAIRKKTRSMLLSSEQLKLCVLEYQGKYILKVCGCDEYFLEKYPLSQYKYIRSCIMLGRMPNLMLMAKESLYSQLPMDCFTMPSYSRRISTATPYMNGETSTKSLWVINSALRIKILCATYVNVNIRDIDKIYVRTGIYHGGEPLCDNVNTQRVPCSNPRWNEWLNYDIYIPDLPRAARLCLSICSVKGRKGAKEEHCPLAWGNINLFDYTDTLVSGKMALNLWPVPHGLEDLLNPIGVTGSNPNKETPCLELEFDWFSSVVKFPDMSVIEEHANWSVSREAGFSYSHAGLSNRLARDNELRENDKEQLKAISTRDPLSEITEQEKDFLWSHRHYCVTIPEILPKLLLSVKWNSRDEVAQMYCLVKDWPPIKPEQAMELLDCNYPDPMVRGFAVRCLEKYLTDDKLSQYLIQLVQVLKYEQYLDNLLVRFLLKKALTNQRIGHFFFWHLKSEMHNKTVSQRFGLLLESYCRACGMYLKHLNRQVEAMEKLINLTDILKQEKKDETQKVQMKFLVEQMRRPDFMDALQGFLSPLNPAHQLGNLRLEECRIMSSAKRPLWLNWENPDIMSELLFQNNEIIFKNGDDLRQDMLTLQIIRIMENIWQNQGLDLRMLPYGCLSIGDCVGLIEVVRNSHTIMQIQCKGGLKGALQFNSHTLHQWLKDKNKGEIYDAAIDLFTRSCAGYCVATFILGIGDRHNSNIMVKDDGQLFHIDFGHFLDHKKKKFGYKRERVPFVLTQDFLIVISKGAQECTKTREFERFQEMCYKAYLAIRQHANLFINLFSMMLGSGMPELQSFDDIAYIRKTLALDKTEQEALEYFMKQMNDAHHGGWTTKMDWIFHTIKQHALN

IC50, < 1000 nM:
CC(C)n1ncnc1-c1cn2c(n1)-c1cnc(NCc3ccn[nH]3)cc1OCC2
Cc1nc(-c2cn3c(n2)-c2ccc(OC4CC4)cc2OCC3)n(C(C)C)n1
Cc1nc(-c2cn3c(n2)-c2ccc(-c4cnn(C)c4)cc2OCC3)n(C(C)C)n1
CC(C)n1ncnc1-c1cn2c(n1)-c1ccc(OC3CCC3)cc1OCC2
NC(=O)[C@@H]1CCCN1c1cc2c(cn1)-c1nc(-c3ncnn3-c3ccccc3Cl)cn1CCO2
CC(C)C(Oc1cc2c(cn1)-c1nc(-c3ncnn3C(C)C)cn1CCO2)C(N)=O (stereo unspecified)
Cc1nc(-c2cn3c(n2)-c2ccc(-c4cccnc4)cc2OCC3)n(C(C)C)n1
O=c1[nH]cccc1-c1ccc2c(c1)-c1nc(-c3ncnn3CC(F)(F)F)cn1CCO2
CC(C)n1ncnc1-n1cc2c(n1)-c1cc(-c3cn[nH]c3)ccc1OCC2
CC(C)n1ncnc1-c1cn2c(n1)-c1ccc(N3CC(C(N)=O)C3)nc1OCC2
Cc1nc(-c2cn3c(n2)-c2ccc(C4COC4)cc2OCC3)n(C(C)C)n1
Cc1nc(-c2cn3c(n2)-c2cnc(N4C[C@H](O)C[C@H]4C(N)=O)cc2OCC3)n(C(C)C)n1
COc1cc2c(cn1)-c1nc(-c3ncnn3C(C)C)cn1CCO2
CC(C)(CO)NC(=O)c1ccc2c(c1)-c1nc(-c3ncnn3CC(F)(F)F)cn1CCO2
CC(C)n1ncnc1-c1cn2c(n1)-c1cnc(N3CCN(CC(=O)N(C)C)CC3)cc1OCC2
CC(C)NC(=O)CN1CCC(c2ccc3c(c2)OCCn2cc(-c4ncnn4C(C)C)nc2-3)CC1
CC(C)n1ncnc1-c1cn2c(n1)-c1ccc(O[C@@H](CO)C(N)=O)cc1OCC2
CC(C)n1ncnc1-c1cn2c(n1)-c1ccc(-c3cnc(CC(C)(C)O)[nH]3)cc1OCC2
CC(C)n1ncnc1-c1cn2c(n1)-c1ccc(CC(=O)NO)cc1OCC2
CC(C)n1nc(CO)nc1-c1cn2c(n1)-c1cnc(N(C)C)cc1OCC2
CC(C)n1ncnc1-c1cn2c(n1)-c1ccc(-c3cncn3C3CCCCO3)cc1OCC2 (stereo unspecified)
Cc1nc(-c2cn3c(n2)-c2cnc(N4CCC[C@H]4C(N)=O)cc2OCC3)n(-c2cc(F)cc(F)c2)n1
CC(C)n1ncnc1-c1cn2c(n1)-c1ccc(C(=O)NO)cc1OCC2
NC(=O)CN1CC(c2ccc3c(c2)OCCc2cn(-c4ncnn4-c4ccc(F)cc4F)nc2-3)C1
CC(C)C(Oc1ccc2c(c1)OCCn1cc(-c3ncnn3CC(F)(F)F)nc1-2)C(N)=O (stereo unspecified)
CNc1cc2c(cn1)-c1nc(-c3ncnn3C(C)C)cn1CCO2
Cc1ncc(-c2ccc3c(c2)OCCn2cc(-c4ncnn4C(C)C)nc2-3)[nH]1
Cc1nc(-c2cn3c(n2)-c2cnc(N4CC[C@@H](O)[C@H]4C(N)=O)cc2OCC3)n(C(C)C)n1
CC(C)n1ncnc1-c1cn2c(n1)-c1ccc(C3CN(C(C)(C)C(N)=O)C3)cc1OCC2
CC(=O)N1CC(c2ccc3c(c2)-n2nc(-c4ncnn4C(C)C)cc2CCO3)C1
CNC(=O)c1ccc2c(c1)OCCn1cc(-c3ncnn3-c3ccc(F)cc3F)nc1-2
CC(C)n1ccnc1-c1cn2c(n1)-c1ccc(-c3cnn(CC(C)(C)O)c3)cc1OCC2
CC(C)(CO)NC(=O)c1ccc2c(c1)OCCn1cc(-c3ncnn3-c3ccccc3Cl)nc1-2
CC(C)n1ccnc1-c1cn2c(n1)-c1cnccc1OCC2
CC(C)n1nc(N)nc1-c1cn2c(n1)-c1cc(F)c(F)cc1OCC2
O=C(CO)N1CCC(c2ccc3c(c2)-n2nc(-c4ncnn4CC(F)(F)F)cc2CCO3)CC1
O=C(c1ccc2c(c1)-c1nc(-c3ncnn3CC(F)(F)F)cn1CCO2)N1CCC(O)CC1
CC(C)n1ncnc1-c1cc2n(n1)-c1cc(C3CN(S(C)(=O)=O)C3)ccc1OCC2
CC(C)N1CCC(c2ccc3c(c2)OCCn2cc(-c4ncnn4C(C)C)nc2-3)CC1
CC(C)n1ncnc1-c1cc2n(n1)-c1cc(C(=O)NC3CNC3)ccc1OCC2
Nc1nc(-c2cn3c(n2)-c2cc(C(F)(F)F)ccc2OCC3)n(CC(F)(F)F)n1
CC(C)n1ncnc1-c1cn2c(n1)-c1cnc(OC(C)(C)C(N)=O)cc1OCC2
Cc1nc(-c2cn3c(n2)-c2ccc(C(F)F)cc2OCC3)n(C(C)C)n1
Cc1nc(-c2cn3c(n2)-c2cnc(N4CCC[C@H]4C(N)=O)cc2OCC3)n(CC(F)(F)F)n1
CC(C)n1ncnc1-c1cc2n(n1)-c1cc(C(=O)Nc3ccon3)ccc1OCC2
COC(=O)c1ccc2c(c1)OCCn1cc(-c3ncnn3C(C)C)nc1-2
Cc1nc(-c2ccc3c(c2)OCCn2cc(-c4ncnn4C(C)C)nc2-3)cn1C
Cc1nc(-c2cn3c(n2)-c2cnc(N4CCCC4C4CCCCN4C)cc2OCC3)n(CC(F)(F)F)n1 (stereo unspecified)
CC(C)n1ncnc1-n1cc2c(n1)-c1cc(C(=O)NCCO)ccc1OCC2
CC(C)n1ncnc1-c1cn2c(n1)-c1ccc(CCS(N)(=O)=O)cc1OCC2
CC(C)n1ncnc1-c1cn2c(n1)-c1ccc(C3CCN(CC(F)(F)F)CC3)cc1OCC2
Cc1nc(-c2cn3c(n2)-c2ccc(C4CC4)cc2OCC3)n(C(C)CO)n1 (stereo unspecified)
CC(C)n1ncnc1-c1cn2c(n1)-c1ccc(C3CCN(CC(N)=O)CC3)cc1OCC2
CC(C)n1ncnc1-c1cn2c(n1)-c1ccc(OC3CC3)cc1OCC2
CC(C)n1ncnc1-c1cn2c(n1)-c1ccc(C3CCN(CC(C)(C)O)CC3)cc1OCC2
OCCN1CCC(c2ccc3c(c2)-n2nc(-c4ncnn4CC(F)(F)F)cc2CCO3)CC1
Cc1nc(-c2cn3c(n2)-c2ccc(N4CCC[C@H]4C(N)=O)cc2OCC3)n(CC(F)(F)F)n1
CCN(CC)CCn1cc(-c2ccc3c(c2)OCCn2cc(-c4ncnn4C(C)C)nc2-3)cn1
CC(C)n1ncnc1-c1cn2c(n1)-c1cnc(N3CCC[C@@H]3C(N)=O)cc1OCC2
CC(C)n1nccc1-c1cn2c(n1)-c1ccc(C(N)=O)cc1OCC2
CC(C)n1ncnc1-c1cc2n(n1)-c1cc(C(=O)N3CCS(=O)(=O)CC3)ccc1OCC2
CC(C)n1ncnc1-c1cn2c(n1)-c1ccc(C3CN(CCS(=O)(=O)N(C)C)C3)cc1OCC2
Clc1ccccc1-n1ncnc1-c1cn2c(n1)-c1cc(-c3ccccc3)ccc1OCC2
CCOc1ccc2c(c1)OCCn1cc(-c3nc(C)nn3C(C)C)nc1-2
Nc1cc2c(cn1)-c1nc(-c3ncnn3CC(F)(F)F)cn1CCO2
CC(C)n1ncnc1-c1cc2n(n1)-c1cc(C3CN(CCO)C3)ccc1OCC2
CC(C)n1ncnc1-c1cn2c(n1)-c1ccc(CC(N)=O)cc1OCC2
CC(C)n1ncnc1-c1cn2c(n1)-c1cnc(N3CC[C@H](C#N)C3)cc1OCC2
CCc1ccc2c(c1)OCCn1cc(-c3nc(C)nn3C(C)C)nc1-2
Cc1nc(-c2cn3c(n2)-c2ccc(CCC(N)=O)cc2OCC3)n(C(C)C)n1
NC(=O)[C@@H]1CCCN1c1cc2c(cn1)-c1nc(-c3ncnn3C3CCCCC3)cn1CCO2
